Assay results as given in patent US7247714B2, “Protection against oxidative stress and inflammation by a cytoprotective response element” (Atherogenics, Inc., priority 2001, dated 2007).
Entries after “also recorded” stand apart in the source; their conditions may differ.

Tests used:
[1] = test system: CPRE promoter; experiment: Stable HeLa cell line with stably-integrated CPRE-Luc gene; format: cell-based, human
Experimental: Although transient transfection methods are useful for understanding molecular mechanisms of gene expression and cellular biology, they are not suitable for high-throughput screening of libraries of compounds. Therefore, a stable HeLa cell line was generated that contains a stably-integrated copy of the CPRE-Luc gene.
(§1) HMECs and HeLa cells were transiently transfected with 1 μg of 3xCPRE-Luc and 0.1 μg of pRL-SV40. One day after transfection, cells were treated with t-BHQ or compound A. Luciferase activities were determined 16 hours after exposure to tBHQ. To generate stable HeLa cell lines that contain a stably-integrated copy of the CPRE-Luc gene, HeLa cells were transfected with p3xCPRE-Luc plus pcDNA-LacZ-Hyg (an expression vector containing the hygromycin drug resistance gene) using SuperFect transfection reagent. Two days after transfection, cells were cultured in hygromycin (400 μg/ml)-containing selection medium until individual colonies were identified. The colonies were expanded and the presence of CPRE-Luc-containing clones was examined by inducible luciferase activity. All experiments are an average of at least three independent determinations for each experimental sample.

[2] = test system: methylated BSA-induced model of delayed type hypersensitivity; experiment: Mouse delayed type hypersensitivity model (methylated BSA), paw swelling; format: in vivo; conditions: Compound A 100 mg/kg intraperitoneal at -24, -1 and +6 hrs from challenge; paw weight 24 hours later
Experimental: Balb/C mice were divided into two groups: control/vehicle and treated. They were sensitized intradermally on day 0 with methylated BSA (metBSA), and then challenged with metBSA on day 7 in the right hind paw. Compound A was administered at a dose of 100 mg/kg to the treated group by intraperitoneal injection −24, −1 and +6 hrs from the time of challenge. All animals were sacrificed 24 hours later and the left and right hind paws weighed. The left hind paw weight was subtracted from the right hind paw to give the paw weight increase.

[3] = test system: VCAM-1; experiment: TNF-α-activated cell surface expression of VCAM-1 in cell culture models; format: cell-based; conditions: read-out: IC50, inhibition of TNF-α-activated cell surface expression of VCAM-1
[4] = test system: murine model of aerosolized ovalbumin-induced asthma; experiment: Mouse asthma model, airway eosinophilia and hyperreactivity; format: in vivo
Experimental: Male BALB-C mice, 6 weeks of age, were randomly assigned to one of following groups: ova/ova, vehicle control, dexamethasone (3 mg/kg) treatment, and Compound A. Animals were weighed on day 0, 7, 12 and 14 and were given access to food and water ad libidum. Mice were sensitized intraperitoneally with 8 μg of ovalbumin and 1 mg of aluminum hydroxide on Day 0 and Day 5. The animals were exposed to aerosolized ovalbumin (0.5%) twice on Day 12 (1 hr & 10 minutes per exposure). The ovalbumin exposures were separated by at least 4 hours. Differentials were performed on bronchoaveolar lavage fluid on Day 14 to determine % eosinophils. Compound A was orally administered daily at a dose of 300 mg/kg from time of sensitization to termination of study to the Compound A group.

[5] = test system: murine model of allergen-induced peritonitis; experiment: Murine model of allergen-induced peritonitis (Type 1 hypersensitivity), eosinophil recruitment; format: in vivo, mouse; conditions: Compound A 50 mg/kg/d intravenous, 1 or 4 hours prior to ovalbumin challenge
Experimental: To evaluate the anti-inflammatory potential of compound A, a murine model of Type 1 hypersensitivity was used. In this model mice are sensitized to ovalbumin and subsequently challenged with ovalbumin by intraperitoneal injection. This leads to eosinophil recruitment and accumulation in the peritoneal cavity 24-48 hours after the challenge.
6-8 week old Balb/c mice (weighing 20-30 g) were given subcutaneous injections of ovalbumin in alum (0.4 ml of 100 μg ovalbumin and 3.3 mg of Alum Inject) on days 0 and 7. The mice were challenged on day 14 with an intraperitoneal injection of ovalbumin (10 μg in 0.2 ml saline). The mice were sacrificed and peritoneal lavage fluid collected 48 hours after the challenge. The peritoneal fluid was concentrated and slide smears made using a cytospin centrifuge. Slides were stained with Diff-Quik and differential counts obtained by counting 300 cells. Compound A was administered by intravenous injection, in a vehicle composed of 95% Liposyn and 5% Tween 20, 4 or 1 hour prior to challenge. Compound A was compared to dexamethosone administered orally at a dose of 2.5 mg/kg/d.
In a common allergic inflammation, balb/C mice were divided into two groups: control/vehicle and Compound G treated. They were then sensitized to ovalbumin on days 0 and 7 with a subcutaneous injection of ovalbumin absorbed in aluminum hydroxide. The treated group was dosed i.v. 50 mg/kg in liposyn/tween and vehicle one day prior to challenge. The mice were then challenged with an intraperitoneal injection of ovalbumin on day 14 and sacrificed 48 hrs post-challenge. Peritoneal fluid was collected and spun down onto slides. Slides were stained with DiffQuik and a differential performed.

[6] = test system: p3xCPRE/Luc; experiment: p3xCPRE/Luc reporter, transient transfection in HMEC cells; format: cell-based, human; conditions: Compound A 10 μM
Experimental: (§2) In an effort to determine the utility of the CPRE-Luc reporter construct for the identification of small molecular weight compounds that activate the CPRE, the p3xCPRE/Luc reporter was transiently transfected into both HeLa and endothelial cells (HMECs). […] Similar results were obtained in HeLa cells with both t-BHQ and compound A (FIG. 12b).
as §1

[7] = test system: p3xCPRE/Luc; experiment: Activation of p3xCPRE/Luc by small molecular weight organic compounds (Table 6); format: cell-based, human; conditions: luciferase activity 16 hours after exposure
Experimental: In the in vitro assay system described above, a stable HeLa cell line was generated that contains a stably-integrated copy of the CPRE-Luc gene.
as §1, with “the compounds listed in Table 6” for “t-BHQ or compound A.”, “the compounds.” for “tBHQ.”, “SuperFeet” for “SuperFect”, “All experiments are an average of at least three independent determinations for each experimental sample.” left out

[8] = test system: p3xCPRE/Luc; experiment: p3xCPRE/Luc reporter, transient transfection in HeLa cells; format: cell-based, human
Experimental: HMEC cells (passage 20) and HeLa cells were seeded into 6 well plates and were grown to approximately 60-70% confluency. Cells were transfected with 2 μg (HeLa) or 1 μg (HMEC) each of p3xCPRE/Luc reporter and Nrf-2 expression vector (an expression vector containing the full-length murine Nrf-2 gene under the control of the CMV promoter (Asakura & Karino (1990) Circ Res, 66:1045-1066). Cells were cultured for an additional 48 hours, and luciferase activity was determined (Promega). An average of at least three independent determinations were made for each experimental sample. Results are expressed as ratio of firefly/renilla luciferase.
as §2, §1

IC50 [3]: ~1400 nM
CPRE Activity: concentration to achieve a two-fold induction of CPRE activity over control [7]: 4.5 µM
Compound: COc1cc(OC)c(-c2cc3ccccc3s2)cc1/C=C/C(=O)c1cc(OC)c(OC)c(OC)c1 [Compound A, 3-(5-Benzo-[b]-thiophene-2-yl-2,4-dimethoxy-phenyl)-1-(3,4,5-trimethoxy-phenyl)propenone]
CPRE/Luc activity, percent increase over control (vehicle) levels, concentration-response ([1]; Hela cells, 1.25, 2.5, 5, 10, 20 and 40 μM (FIG. 14)): significantly elevated in a concentration-dependent manner
Concentration of maximum activation of the CPRE promoter ([1]; stable HeLa cell line (FIG. 14)): approximately 20 μM
Inhibition of paw swelling compared with the vehicle controls [2]: 79%
Inhibition of eosinophilia in bronchoaveolar lavage fluid compared with vehicle controls ([4]; Compound A 300 mg/kg oral daily, Day 14, p<0.05): 48%
Eosinophil levels in bronchoaveolar lavage fluid ([4]; Compound A 300 mg/kg/d oral): significantly decreased
Lung function (airway hyperreactivity to methacholine) ([4]; Compound A 300 mg/kg/d oral, 300 mg/kg/day): significantly improved lung function
Eosinophil levels in peritoneal fluid (percent eosinophils) [5]: significantly decreased
Eosinophil levels in peritoneal fluid (percent eosinophils) ([5]; listed as compound A): significantly significant reduction
p3xCPRE/Luc activity (induction of transcription from the CPRE) [6]: greater than two-fold; also recorded: significantly increased
p3xCPRE/Luc activity ([8]; Compound A 10 μM): significantly increased
p3xCPRE/Luc activity ([8]; compound A 15 μM (FIG. 9c)): significantly increased
p3xCPRE/Luc activity, concentration-response ([8]; transient transfection, 5, 10 and 20 μM (FIG. 13)): dose-dependent response; also recorded: significantly increased
